Test results from US8318812B2, “Therapeutic agents for the treatment of lymphoid malignancies” (The Ohio State University Research Foundation, priority 2006, dated 2012).

How the values were obtained:
[1] = test system: MEC, Ramos, Raji, 697 and RS4-11 B cell lines; assay: Annexin V/PI viability by flow cytometry in B cell lines; type: cell-based, Human; conditions: Ramos cells; okadaic acid pretreatment
Experimental: Cells: Blood was obtained from patients with B-cell CLL with informed consent under a protocol approved by the hospital internal review board. All patients examined in this series had immunophenotypically defined CLL as outlined by the modified 96 National Cancer Institute criteria. B-CLL cells were isolated from freshly donated blood using ficoll density gradient centrifugation (Ficoll-Paque Plus, Amershan Biosciences, Piscataway, N.J.). Isolated mononuclear cells were incubated in RPMI 1640 media (Gibco/Invitrogen, Carlsbad, Calif.) supplemented with 10% heat-inactivated fetal bovine serum (FBS, Hyclone Laboratories, Logan, Utah), 2 mM L-glutamine (Invitrogen, Carlsbad, Calif.), and penicillin (100 U/mL)/streptomycin (100 μg/ml) [Sigma-Aldrich, St. Louis] at 37° C. in an atmosphere of 5% CO2. Freshly isolated B-CLL cells were used in all experiments described herein. […]
Analysis of cell viability and apoptosis: The cell viability was carried out by dual staining with Annexin V conjugated to flourescein-isothyocyanate (FITC) and Propidium iodide (PI) as described previously. Briefly, 1×10^6 cells were stained with Annexin V-FITC (BD Pharmingen) and Propidium iodide (BD Pharmingen) for 15 minutes in dark and analyzed by flow cytometry using a Beckman-Coulter EPICS XL cytometer (Beckman-Coulter, Miami, Fla.). […]

[2] = test system: CD19+ B cells from CLL patients; type: cell-based; conditions: CLL cells
Experimental: Cells: Blood was obtained from patients with B-cell CLL with informed consent under a protocol approved by the hospital internal review board. All patients examined in this series had immunophenotypically defined CLL as outlined by the modified 96 National Cancer Institute criteria. B-CLL cells were isolated from freshly donated blood using ficoll density gradient centrifugation (Ficoll-Paque Plus, Amershan Biosciences, Piscataway, N.J.). Isolated mononuclear cells were incubated in RPMI 1640 media (Gibco/Invitrogen, Carlsbad, Calif.) supplemented with 10% heat-inactivated fetal bovine serum (FBS, Hyclone Laboratories, Logan, Utah), 2 mM L-glutamine (Invitrogen, Carlsbad, Calif.), and penicillin (100 U/mL)/streptomycin (100 μg/ml) [Sigma-Aldrich, St. Louis] at 37° C. in an atmosphere of 5% CO2. Freshly isolated B-CLL cells were used in all experiments described herein. Enriched B-lymphocyte fractions were prepared by using MACS negative selection kit by Miltenyi Biotech (Auburn, Calif.) or by “Rosette-Sep” kit from Stem Cell Technologies (Vancouver, British Columbia, Canada) according to the manufacturer's instructions. Human B-lymphocyte cell lines Raji and Ramos were obtained from ATCC (Manassas, Va.) and the MEC cells were obtained from German cell line bank (Braunschweig, Germany). The 697-neo and 697-Bcl-2 cell lines were kind gift from Dr. John Reed (Burnham Institute, La Jolla, Calif.). Cells were cultured at 37° C. in an atmosphere of 5% CO2 in RPMI 1640 media (Gibco/Invitrogen, Carlsbad, Calif.) supplemented with 10% fetal bovine serum (Gibco/Invitrogen).
Analysis of cell viability and apoptosis: The cell viability was carried out by dual staining with Annexin V conjugated to flourescein-isothyocyanate (FITC) and Propidium iodide (PI) as described previously. Briefly, 1×10^6 cells were stained with Annexin V-FITC (BD Pharmingen) and Propidium iodide (BD Pharmingen) for 15 minutes in dark and analyzed by flow cytometry using a Beckman-Coulter EPICS XL cytometer (Beckman-Coulter, Miami, Fla.). Apoptotic cells were identified as Annexin V and/or PI positive cells. Cells excluding both FITC and PI were considered to be viable. The Annexin V^−/PI^− cells are represented as % live cells normalized to untreated controls.
B-CLL cells are reported to be resistant to apoptosis in-vivo. To systematically analyze the effects of FTY720 on B-CLL cells, purified CD19^+ cells from B-CLL patients were incubated with increasing concentrations of FTY720 ranging from 0, 0.5, 1, 1.5, 2.5, 5 or 10 uM. The cytotoxic effects were independently determined by flow cytometry using propidium iodide (PI) and Annexin V conjugated FITC reagents. Populations excluding both PI and Annexin V-FITC staining were considered viable. […]

PP2A [3] = assay: PP2A activity (malachite green phosphatase assay) in lysates of CLL cells; type: cell-based, Human; conditions: pretreatment with 5 nM okadaic acid
Experimental: (§1) PP2A Activity: The protein phosphatase activity of total cellular lysate was determined by measuring the generation of free PO4 from the threonine phosphopeptide using the malachite green-phosphate complex assay as described by the manufacturer (Upstate, Charlottesville, […].). Cell lysates were prepared in a low detergent lysis buffer (1% Nonidet P-40, 10 mM HEPES, 0.5M NaCl, 10% Glycerol, 1 mM PMSF, 5 mM Benzamidine, 10 μg/ml leupeptin). The phosphatase assay was performed in a PP2A-specific reaction buffer (Upstate) using 750 μM phosphopeptide substrate. After 30-min incubation at 30° C. malachite dye was added, and free phosphate was measured by optical density at 650 nm. To avoid variability among different immunoprecipitated samples, the phosphatase activities were normalized with the amount of PP2A immunoprecipitated, as detected and quantified by western blot analysis of each treatment group.
In order to determine if FTY720 induced activation of PP2A enzyme in CD19^+ B cells from CLL patients were treated with 10 uM FTY720 for 0, 1, 2, 3, 4 and 15 hrs and the PP2A activity in the lysates were quantified using a functional assay following immunoprecipitation of PP2A enzyme. As reported previously in other systems, FTY720 induced a consistent 2-3 fold increase in PP2A activation with the peak response observed at 4 hour post treatment (FIG. 6a). […] Similar phenomenon was also observed in Ramos B cell line. FTY720 induced activation of PP2A in Ramos cell line as early as 3 hours and this induced PP2A activity was inhibited by okadaic acid (FIG. 7a-b).

PP2A [4] = assay: PP2A activity in lysates of Ramos B cell line; type: cell-based, Human
Experimental: as §1
In order to determine if FTY720 induced activation of PP2A enzyme in CD19^+ B cells from CLL patients were treated with 10 uM FTY720 for 0, 1, 2, 3, 4 and 15 hrs and the PP2A activity in the lysates were quantified using a functional assay following immunoprecipitation of PP2A enzyme. As reported previously in other systems, FTY720 induced a consistent 2-3 fold increase in PP2A activation with the peak response observed at 4 hour post treatment (FIG. 6a). […]

Mino cells = assay: Annexin V/PI toxicity in Mino cells; type: cell-based, Human; conditions: 150 μM z-VAD-fmk
Experimental: Primary MCL cells were isolated from PBMC (with informed patient consent under a protocol approved by IRB) as described before. All the MCL patients were identified as outlined by the World Health Organization (WHO) classification. Human mantle cell lymphoma patient cell lines (Mino and Jeko) were obtained from Dr. Raymond Lai. Primary cells or MCL cell lines were incubated in RPMI 1640 media, supplemented with 10%-20% heat-inactivated fetal bovine serum, 2 mM L-glutamine and penicillin (100 U/mL)/streptomycin ([…]) at 37° C. in an atmosphere of 5% CO2. FTY720 was synthesized as previously described. Toxicity was determined by flow cytometry using Annexin-V-FITC and Propidium Iodide (PI) staining. Apoptotic cells were identified as Annexin-V+ and/or PI+ cells. Cells excluding both FITC and PI were considered viable. Western Blotting was performed as described previously using indicated antibodies. The PARP (Ab-2) and Caspase 9 antibodies were purchased from Oncogene/Calbiochem/EMD Biosciences (San Diego, Calif.). Cyclin D1, Akt, Actin, Mcl-1, p-ERK, ERK and Bcl-2 were obtained from Santa Cruz biotech (Santa Cruz, Calif.).
Several therapeutic agents, including fludarabine, chlorambucil, 2-chloro-2-deoxyadenosine and glucocorticoids, induce toxicity in B cell malignancies through activating caspases, the cysteine proteases of CED3/ICE family. Inhibition of these caspases results in abrogation of apoptosis mediated by the toxic stimuli. To determine if caspase activation is involved in FTY720-induced cytotoxicity in MCL, we pretreated Mino cells with 150 μM broad spectrum caspase inhibitor z-VAD-fmk. […] Activation of caspases results in cleavage of key cellular proteins including poly-ADP-ribose polymerase (PARP).

Row | Compound | effect of okadaic acid on FTY720 induced apoptosis [1] | effect of okadaic acid on FTY720 induced cellular cytotoxicity ([2]; okadaic acid pretreatment) | inhibition of the FTY720 induced PP2A activation (PP2A [3]) [fold] | effect of okadaic acid on FTY720 induced PP2A activity (PP2A [4]) | effect of z-VAD-fmk on FTY720 induced apoptosis ([2]; z-VAD-fmk 150 uM) | effect of z-VAD-fmk on fludarabine induced apoptosis ([2]; z-VAD-fmk 150 uM) | reduction in FTY720 induced apoptosis (Mino cells) [%] | reduction in fludarabine induced apoptosis (Mino cells) [%]
1 | C=C1[C@@H](O)[C@@H]2O[C@]3(CC[C@H](/C=C/[C@@H](C)[C@@H]4CC(C)=C[C@@]5(O[C@H](C[C@@](C)(O)C(=O)O)CC[C@H]5O)O4)O3)CC[C@H]2O[C@@H]1[C@@H](O)C[C@H](C)[C@H]1O[C@@]2(CCCCO2)CC[C@H]1C [okadaic acid] | inhibition of FTY720 induced apoptosis | inhibition of FTY720 induced cellular cytotoxicity | ≤ 3 | inhibited | – | – | – | –
2 | z-VAD-fmk | – | – | – | – | failed to prevent FTY720 induced apoptosis | effectively rescued fludarabine induced apoptosis | ~50 | ~50
